Measurements: ChEMBL document CHEMBL5370590, “Densely Functionalized Macrocyclic Sesquiterpene Pyridine Alkaloids from Maytenus austroyunnanensis” (J Nat Prod, 2023)
The source made the active and inactive calls. The rule behind the calls is not given here.

Experiments:
BV-2 [1] = test: Cytotoxicity against mouse BV-2 cells assessed as reduction in cell viability at 10 uM incubated for 24 hrs by MTT assay; format: toxicity, cell-based; settings: bv-2, 24 h
BV-2 [2] = test: Inhibition of LPS-induced NO production in mouse BV-2 cells at 10 uM pre-incubated for 2 hrs followed by LPS stimulation and measured after 24 hrs by Griess reagent based method; format: functional, cell-based; settings: time 26.0 hrs
BV-2 [3] = test: Inhibition of LPS-induced NO production in mouse BV-2 cells assessed as NO production at 10 uM pre-incubated for 2 hrs followed by LPS stimulation and measured after 24 hrs by Griess reagent based method relative to control; format: functional; parameters: scale not given: the % may be the effect or the level left; settings: time 26 hrs
BV-2 [4] = test: Inhibition of LPS-induced NO production in mouse BV-2 cells assessed as NO production at 20 uM pre-incubated for 2 hrs followed by LPS stimulation and measured after 24 hrs by Griess reagent based method relative to control; format: functional; parameters: scale not given: the % may be the effect or the level left; settings: time 26 hrs

Row | Structure (SMILES) | Activity (BV-2 [1]) | inhibition (BV-2 [2]) | Activity (BV-2 [3]) [%] | Activity (BV-2 [4]) [%]
1 | CC(=O)OC[C@]12[C@H](OC(C)=O)C(=O)[C@@H]3[C@@H](OC(C)=O)[C@@]14O[C@@]3(C)COC(=O)c1cccnc1CC[C@@](C)(OC(C)=O)C(=O)O[C@@H]([C@H](OC(=O)c1cccnc1)[C@@H]2OC(C)=O)[C@]4(C)O | Non-Toxic | – | – | –
2 | C/C=C(\C)C(=O)O[C@@H]1[C@@H]2[C@@H](OC(C)=O)[C@@]34O[C@@]2(C)COC(=O)c2cnccc2CC[C@@](C)(OC(C)=O)C(=O)O[C@@H]([C@H](OC(=O)/C(C)=C/C)[C@H](OC(C)=O)[C@@]3(COC(C)=O)[C@@H]1OC(C)=O)[C@]4(C)O | Non-Toxic | Active | – | –
3 | C/C=C(\C)C(=O)O[C@H]1C[C@@H]2[C@@H](OC(=O)c3ccccc3)[C@@]3(OC2(C)C)[C@@]1(COC(C)=O)[C@@H](OC(C)=O)[C@@H](OC(C)=O)C[C@]3(C)O | Non-Toxic | Active | 59.61 | –
4 | CC(=O)O[C@H]1C[C@](C)(O)[C@]23OC(C)(C)[C@H](C[C@H](OC(=O)c4cccnc4)[C@]2(CO)[C@H]1OC(C)=O)[C@H]3OC(C)=O | Non-Toxic | – | – | –
5 | C/C=C(\C)C(=O)O[C@@H]1[C@H](OC(C)=O)[C@@H]2[C@@H](OC(=O)/C(C)=C/C)[C@@]34O[C@@]2(C)COC(=O)c2cccnc2CC[C@H](C)C(=O)O[C@@H]([C@H](O)[C@H](O)[C@@]13COC(C)=O)[C@]4(C)O | Non-Toxic | Active | – | –
6 | C/C=C(\C)C(=O)O[C@H]1[C@@H]2[C@@H](OC(C)=O)[C@@]34O[C@@]2(C)COC(=O)c2cnccc2CC[C@@](C)(OC(C)=O)C(=O)O[C@@H]([C@H](OC(C)=O)[C@H](OC(C)=O)[C@@]3(COC(C)=O)[C@@H]1OC(C)=O)[C@]4(C)O | Non-Toxic | Active | – | –
7 | CC(=O)OC[C@]12[C@H](OC(C)=O)[C@@H](OC(C)=O)[C@@H]3[C@@H](OC(C)=O)[C@@]14O[C@@]3(C)COC(=O)c1cccnc1[C@@H](C)[C@H](C)C(=O)O[C@@H]([C@H](OC(=O)c1ccc(=O)n(C)c1)[C@@H]2OC(C)=O)[C@]4(C)O | Toxic | – | – | –
8 | CC(=O)OC[C@]12[C@H](OC(C)=O)[C@@H](OC(C)=O)[C@@H]3[C@@H](OC(C)=O)[C@@]14O[C@@]3(C)COC(=O)c1cccnc1[C@@H](C)[C@H](C)C(=O)O[C@@H]([C@H](OC(C)=O)[C@@H]2OC(C)=O)[C@]4(C)O | Non-Toxic | Active | – | –
9 | C/C=C(\C)C(=O)O[C@@H]1[C@H](OC(C)=O)[C@@]2(COC(C)=O)[C@H](OC(C)=O)C(=O)[C@@H]3[C@@H](O)[C@@]24O[C@@]3(C)COC(=O)c2cccnc2CC[C@@](C)(OC(C)=O)C(=O)O[C@@H]1[C@]4(C)O | Non-Toxic | Active | – | –
10 | C/C=C(\C)C(=O)O[C@H]1[C@@H]2[C@@H](OC(C)=O)[C@@]34O[C@@]2(C)COC(=O)c2cccnc2CC[C@@](C)(OC(C)=O)C(=O)O[C@@H]([C@H](OC(C)=O)[C@H](OC(C)=O)[C@@]3(COC(C)=O)[C@@H]1OC(C)=O)[C@]4(C)O | Non-Toxic | Active | – | –
11 | Oc1ccc(/C=C/c2cc(O)cc(O)c2)cc1 [RESVERATROL] | – | – | – | 21.38
12 | C/C=C(\C)C(=O)O[C@@H]1[C@H](OC(C)=O)[C@@]2(COC(C)=O)[C@H](OC(C)=O)C(=O)[C@@H]3[C@@H](OC(C)=O)[C@@]24O[C@@]3(C)COC(=O)c2cccnc2CC[C@@](C)(OC(C)=O)C(=O)O[C@@H]1[C@]4(C)O | Non-Toxic | Active | – | –
13 | CC(=O)OC[C@]12[C@H](OC(C)=O)C(=O)[C@@H]3[C@@H](OC(C)=O)[C@@]14O[C@@]3(C)COC(=O)c1cccnc1CC[C@@](C)(OC(C)=O)C(=O)O[C@@H]([C@H](OC(=O)c1ccccc1)[C@@H]2OC(C)=O)[C@]4(C)O | Non-Toxic | Active | – | –
